What is called half-life is the time needed for the level to fall by half in the phase considered. Low readings indicate fast loss, high ones slow loss. As usually defined, the AUC(0-inf) is total exposure, with the tail of the curve extrapolated. For orientation: Cmax means the highest concentration seen after dosing.

A short description of series [1]: Metabolic stability in liver S9. It counts as in vitro ADME, beagle dog. As to conditions: beagle, liver S9; Dog; test conc. 3 μM.
Series [2] has as its system four beta-lactamase expressing Enterobacteriaceae (1 KPC, 1 p99, 1 CTX-M-15, and 1 OXA-48). Nature of the series: Time-kill kinetic analyses. The class given is cell-based. As to conditions: Compound 2 fixed at 4 μg/mL, 24 hours. As for the experimental part:
Activity was determined against four beta-lactamase expressing Enterobacteriaceae (1 KPC, 1 p99, 1 CTX-M-15, and 1 OXA-48). […] Macrodilution tubes were incubated with shaking and bacterial amounts were quantified at 0, 2, 4, 6, 8, and 24 hours by limiting dilutions. Amoxicillin/clavulanic acid (2:1) was used as a comparator oral antibacterial.

A short description of series [3]: Metabolic stability in liver S9. As to conditions: Sprague-Dawley, liver S9; Rat; test conc. 3 μM. The class given is in vitro ADME, Sprague-Dawley rat.
Series [4] is described as follows: Single dose plasma pharmacokinetics (fasted and non-fasted). The class given is in vivo, Cynomolgus monkeys. As to conditions: male, Cynomolgus, cynomolgus monkey, iv, 5 mg/kg.

In the case of `CCC(=O)N[C@H]1Cc2cccc(C(=O)O)c2OB1O` [Compound 2, (R)-2-hydroxy-3-propionamido-3,4-dihydro-2H-benzo[e][1,2]oxaborinine-8-carboxylic acid], the half-life at 3 μM in series [1] and in series [3] was greater than 2 h throughout. Also, the “rescue of ceftibuten to cidality in time-kill” value in series [2] was “able to rescue ceftibuten to a cidal endpoint through 24 hours”. The same molecule yielded an AUC(0-inf) in series [4] of 38400 ng·h/mL. Further, the Cmax in series [4] turned out to be 38600 ng/mL.

Source of the values: patent US12544395B2, “Combination compositions comprising a beta-lactamase inhibitor and uses thereof” (priority 2018, dated 2026).
